Results taken from PubChem BioAssay AID1259411 (Chemical Carcinogenesis Research Information System (CCRIS), 2018).
Active and inactive are the calls of the source. No rule for the calls is given here.

System: rodent carcinogenicity bioassays, tumor incidence
Experiment: CCRIS carcinogenicity studies
In short: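 Archive of carcinogenicity, mutagenicity, tumor promotion and tumor inhibition results drawn from journals, NCI reports and other sources, expert-reviewed; covers 1985-2011 and is no longer updated.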

Question: `CC/C(=C(\c1ccccc1)c1ccc(OCCN(C)C)cc1)c1ccccc1` was tested. Which carcinogen call (Species: MONKEY, Strain/Sex: CYNOMOLGUS/FEMALE, Route: ORAL, Dose: 0, 20 MG/WOMAN/D HUMAN DOSE EQUIVALENT IN DIET FOR 36 MONTHS BEGINNING 3 MONTHS POST BILATERAL OVARIECTOMY (STUDY DURATI) did it give?
Answer: inactive; negative

Question: And the carcinogen call (Species: MOUSE, Strain/Sex: CD-1/FEMALE, Route: SUBCUTANEOUS, Dose: 0, 1, 2, 5, 10, 25, 50 UG/D ON DAYS 1-5 OF LIFE (STUDY DURATION: 17 MO), Dose: 0, 1, 2, 5, 10, 25, 50 UG/D ON DAYS 1-5 OF LIFE (STUDY DURATION: 17 MO), Tumor Site: Type of Lesion: UTERUS: ADENOCARCINOMA)?
Answer: active; positive

Question: And the carcinogen call (Species: Mouse, Strain/Sex: CD-1/Female (30/group), Route: Subcutaneous, Dose: 0, 10 ug as tamoxifen in peanut oil, dosed on days 1-5 of life and retained for 1.5 (4 animals), 3 (4 animals), 6 (4 ani, Dose: 0, 10 ug as tamoxifen in peanut oil, dosed on days 1-5 of life and retained for 1.5 (4 animals), 3 (4 animals), 6 (4 ani, Tumor Site: Type of Lesion: Uterus and ovaries examined)?
Answer: inactive; negative

Question: And the carcinogen call (Species: Mouse, Strain/Sex: CD-1/Female (35/group), Route: Subcutaneous, Dose: 0, 5, 10, 25, 50 ug as tamoxifen in peanut oil, dosed on days 1-5 of life and retained for 3 (4 animals), 6 (4 animals),, Dose: 0, 5, 10, 25, 50 ug as tamoxifen in peanut oil, dosed on days 1-5 of life and retained for 3 (4 animals), 6 (4 animals),, Tumor Site: Type of Lesion: Uterus and ovaries examined)?
Answer: inactive; negative (nonneoplastic changes were observed)

Question: What about the carcinogen call (Species: RAT, Strain/Sex: ALDERLEY PARK/FEMALE, Route: GAVAGE, Dose: 0, 5, 20, 35 MG/KG/D IN 0.5% HYDROXYPROPYL METHYLCELLULOSE FOR 2 YR (STUDY DURATION: 2 YR), Dose: 0, 5, 20, 35 MG/KG/D IN 0.5% HYDROXYPROPYL METHYLCELLULOSE FOR 2 YR (STUDY DURATION: 2 YR), Tumor Site: Type of Lesion: LIVER: HEPATOCELLULAR ADENOMA, HEPATOCELLULAR CARCINOMA, HEPATO/CHOLANGIOCELLULAR CARCINOMA) of the same compound?
Answer: active; positive

Question: What about the carcinogen call (Species: RAT, Strain/Sex: ALDERLEY PARK/MALE, Route: GAVAGE, Dose: 0, 5, 20, 35 MG/KG/D IN 0.5% HYDROXYPROPYL METHYLCELLULOSE FOR 2 YR (STUDY DURATION: 2 YR), Dose: 0, 5, 20, 35 MG/KG/D IN 0.5% HYDROXYPROPYL METHYLCELLULOSE FOR 2 YR (STUDY DURATION: 2 YR), Tumor Site: Type of Lesion: LIVER: HEPATOCELLULAR ADENOMA, HEPATOCELLULAR CARCINOMA, HEPATO/CHOLANGIOCELLULAR CARCINOMA) of the same compound?
Answer: active; positive

Question: What about the carcinogen call (Species: RAT, Strain/Sex: SPRAGUE-DAWLEY/FEMALE, Route: GAVAGE, Dose: 0, 2.8, 11.3, 45.2 MG/KG/D IN CARBOXYMETHYL-CELLULOSE FOR UP TO 1 YR WITH 2 RECOVERY PERIODS, 4 WK OF RECOVERY AFTER 6 M, Dose: 0, 2.8, 11.3, 45.2 MG/KG/D IN CARBOXYMETHYL-CELLULOSE FOR UP TO 1 YR WITH 2 RECOVERY PERIODS, 4 WK OF RECOVERY AFTER 6 M, Tumor Site: Type of Lesion: LIVER: ADENOMA, CARCINOMA) of the same compound?
Answer: active; positive

Question: And the carcinogen call (Species: RAT, Strain/Sex: SPRAGUE-DAWLEY/FEMALE, Route: GAVAGE, Dose: 0, 11.3, 22.6 MG/KG IN 0.5% CARBOXYMETHYLCELLULOSE 1/D 7 D/WK FOR UP TO 12 MO (STUDY DURATION: 15 MO), Dose: 0, 11.3, 22.6 MG/KG IN 0.5% CARBOXYMETHYLCELLULOSE 1/D 7 D/WK FOR UP TO 12 MO (STUDY DURATION: 15 MO), Tumor Site: Type of Lesion: LIVER: HEPATOCELLULAR ADENOMA, HEPATOCELLULAR CARCINOMA)?
Answer: active; positive

Question: What about the carcinogen call (Species: RAT, Strain/Sex: WISTAR/FEMALE, Route: ORAL, Dose: 0, 1 MG/KG BW/D IN PEANUT OIL/LECITHIN/CONDENSED MILK MIXTURE ON DAYS 2-5 OF AGE (STUDY DURATION: 35 MONTHS), Tumor Site: Type of Lesion: UTERUS: ADENOCARCINOMA, VAGINA/CERVIX: SQUAMOUS CELL CARCINOMA) of the same compound?
Answer: active; positive

Question: And the carcinogen call (Species: RAT, Strain/Sex: WISTAR/FEMALE, Route: ORAL, Dose: 0, 420 PPM IN DIET FOR 3 MO (STUDY DURATION: LIFETIME), Tumor Site: Type of Lesion: LIVER: TUMOR)?
Answer: active; positive

Question: `O=C(O)c1ccccc1O` was tested. Which carcinogen call (Species: Mouse, Strain/Sex: SKH-1/Female (18/Group), Route: Dermal, Dose: 0, 2, 4% administered as topical cream (pH 4) , 5 d/wk, 40 wk, animals held an additional 12 wk for study duration of 1, Tumor Site: Type of Lesion: Skin: Carcinoma in situ, squamous cell carcinoma, basal cell carcinoma) did it give?
Answer: inactive; negative. when synthetic solar light (ssl) at 0.3 and 0.6 the minimal erythema d

Question: What about the carcinogen call (Species: Mouse, Strain/Sex: SKH-1/Male (18/Group), Route: Dermal, Dose: 0, 2, 4% administered as topical cream (pH 4) , 5 d/wk, 40 wk, animals held an additional 12 wk for study duration of 1, Tumor Site: Type of Lesion: Skin: Carcinoma in situ, squamous cell carcinoma, basal cell carcinoma) of the same compound?
Answer: inactive; negative. when synthetic solar light (ssl) at 0.3 and 0.6 the minimal erythema d

Question: What does the source list for `CCCCCCCC/C=C/CCCCCCCC(=O)OCCOCC(OCCO)C1OCC(OCCO)C1OCCO` (centres undefined)?
Answer: carcinogen call (Species: MOUSE, Strain/Sex: B6C3F1/FEMALE, Route: ORAL, Dose: 0, 25000, 50000 PPM IN FEED 7 D/WK FOR 103 WK (STUDY DURATION: 103 WK), Dose: 0, 25000, 50000 PPM IN FEED 7 D/WK FOR 103 WK (STUDY DURATION: 103 WK)): inactive; negative; carcinogen call (Species: MOUSE, Strain/Sex: B6C3F1/MALE, Route: ORAL, Dose: 0, 25000, 50000 PPM IN FEED 7 D/WK FOR 103 WK (STUDY DURATION: 103 WK), Dose: 0, 25000, 50000 PPM IN FEED 7 D/WK FOR 103 WK (STUDY DURATION: 103 WK)): inactive; negative; carcinogen call (Species: RAT, Strain/Sex: F344/FEMALE, Route: ORAL, Dose: 0, 25000, 50000 PPM IN FEED 7 D/WK FOR 103 WK (STUDY DURATION: 103 WK), Dose: 0, 25000, 50000 PPM IN FEED 7 D/WK FOR 103 WK (STUDY DURATION: 103 WK)): inactive; negative; carcinogen call (Species: RAT, Strain/Sex: F344/MALE, Route: ORAL, Dose: 0, 25000, 50000 PPM IN FEED 7 D/WK FOR 103 WK (STUDY DURATION: 103 WK), Dose: 0, 25000, 50000 PPM IN FEED 7 D/WK FOR 103 WK (STUDY DURATION: 103 WK), Tumor Site: Type of Lesion: ADRENAL MEDULLA: PHEOCHROMOCYTOMA): equivocal

Question: `C[C@H]1C(=O)O[C@@H]2CCN3CC=C(COC(=O)[C@](C)(O)[C@]1(C)O)[C@H]23` was tested. Which carcinogen call (Species: RAT, Route: ORAL, Tumor Site: Type of Lesion: LIVER) did it give?
Answer: active; positive

Question: What does the source list for `CC(=O)N[C@@H](C=O)[C@@H](O)[C@H](O)[C@H](O)CO`?
Answer: carcinogen call (Species: Rat, Strain/Sex: F344/Female, Route: Oral, Dose: 0, 2.5, 5% in diet for 104 wk): inactive; negative; carcinogen call (Species: Rat, Strain/Sex: F344/Male, Route: Oral, Dose: 0, 2.5, 5% in diet for 104 wk): inactive; negative

Question: What does the source list for `Cc1cc(C(C)(C)C)c(O)c(C(C)(C)C)c1`?
Answer: carcinogen call (Species: MOUSE, Strain/Sex: B6C3F1/FEMALE, Route: ORAL, Dose: 0, 3000, 6000 PPM IN DIET, Dose: 0, 3000, 6000 PPM IN DIET): inactive; negative; carcinogen call (Species: MOUSE, Strain/Sex: B6C3F1/MALE,FEMALE, Route: ORAL, Dose: 200, 1000, 5000 PPM IN DIET FOR 96 WK, Dose: 200, 1000, 5000 PPM IN DIET FOR 96 WK): inactive; negative; carcinogen call (Species: MOUSE, Strain/Sex: B6C3F1/MALE, Route: ORAL, Dose: 0, 3000, 6000 PPM IN DIET, Dose: 0, 3000, 6000 PPM IN DIET): inactive; negative; carcinogen call (Species: RAT, Strain/Sex: F344/FEMALE, Route: ORAL, Dose: 0, 3000, 6000 PPM IN DIET, Dose: 0, 3000, 6000 PPM IN DIET): inactive; negative; carcinogen call (Species: RAT, Strain/Sex: F344/MALE, Route: ORAL, Dose: 0, 3000, 6000 PPM IN DIET, Dose: 0, 3000, 6000 PPM IN DIET): inactive; negative

Question: Which carcinogen call (Species: RAT, Strain/Sex: F344/FEMALE, Route: INHALATION, Dose: 0, 1, 5, 25 MG/M3 6 HR/D 5 D/WK FOR 24 MO (STUDY DURATION: 24 MO), Dose: 0, 1, 5, 25 MG/M3 6 HR/D 5 D/WK FOR 24 MO (STUDY DURATION: 24 MO)) does the source give for `O=P(=O)O` here?
Answer: inactive; negative

Question: And the carcinogen call (Species: RAT, Strain/Sex: F344/MALE, Route: INHALATION, Dose: 0, 1, 5, 25 MG/M3 6 HR/D 5 D/WK FOR 24 MO (STUDY DURATION: 24 MO), Dose: 0, 1, 5, 25 MG/M3 6 HR/D 5 D/WK FOR 24 MO (STUDY DURATION: 24 MO))?
Answer: inactive; negative

Question: With `CCO[Si](CCC1CCC2OC2C1)(OCC)OCC` (centres undefined) as the compound, how does the carcinogen call (Species: MOUSE, Strain/Sex: C3H/MALE, Route: DERMAL, Dose: 0, 2 MG IN ACETONE 3/WK FOR DURATION OF STUDY (STUDY DURATION: LIFETIME)) read?
Answer: inactive; negative

Question: Which results are given for `CC(CNN)c1ccccc1` (centres undefined)?
Answer: carcinogen call (Species: MOUSE, Strain/Sex: SWISS/FEMALE, Route: ORAL, Dose: 0, 156, 312 PPM IN DRINKING WATER DAILY FOR LIFE (STUDY DURATION: 120-140 WK), Dose: 0, 156, 312 PPM IN DRINKING WATER DAILY FOR LIFE (STUDY DURATION: 120-140 WK)): inactive; negative; carcinogen call (Species: MOUSE, Strain/Sex: SWISS/MALE, Route: ORAL, Dose: 0, 156, 312 PPM IN DRINKING WATER DAILY FOR LIFE (STUDY DURATION: 120-140 WK), Dose: 0, 156, 312 PPM IN DRINKING WATER DAILY FOR LIFE (STUDY DURATION: 120-140 WK)): inactive; negative
